Usually melting point stands for the temperature, or range, at which the solid turns liquid.

Molecules are shown by their SMILES. Structures can show the parent of a compound that is named as a salt.

In turn, `N#Cc1ccc(NC2CCN(Cc3cccc(C(F)(F)F)c3)CC2)nc1` yielded a melting point of 111.6 °C.
`N#Cc1ccc(NC2CCN(Cc3cc(F)cc(C(F)(F)F)c3)CC2)nc1`: the melting point turned out to be 198.8 °C.
Compound `N#Cc1ccc(NC2CCN(Cc3cc(F)cc(F)c3)CC2)nc1` registered a melting point of 102.6 °C.
For `N#Cc1ccc(NC2CCN(Cc3cc(F)c(F)c(F)c3)CC2)nc1`, the melting point turned out to be 129.5 °C.
Consider `N#Cc1cccc(NC2CCN(Cc3cc(F)cc(C(F)(F)F)c3)CC2)n1`, for which the melting point came to 115.2 °C.
With `Fc1ccc(CN2CCC(Nc3ccc(C(F)(F)F)cn3)CC2)cc1F` (as salt: hydrochloric acid salt) the figure was 268.7 °C.

The record behind these values is US20100137368A1, “PYRIDINE DERIVATIVES AS FAST DI[…] 2 RECEPTOR ANTAGONISTS” (JANSSEN PHARMACEUTICA N.V., priority 2007, published 2010).
